From article PMC4052546 (Pharmaceuticals, 2011)
Read-outs that look alike come from different tables or passages of the source.

What was measured:
[1] = Pharmacokinetics of AS and DHA in rat plasma after single and multiple intravenous AS injections (automated blood sampler, LC-MS/MS); format: in vivo, Sprague-Dawley rats; conditions: for Cmax / MRT / Tmax / clearance / AUC(0-t) / AUC / half-life / average plasma concentration over 0–72 h (Cav = AUC0–72 h/72): male, Sprague-Dawley, rat, plasma, iv; for AUC(0-t): read-out: AUC0–3 h; for AUC: read-out: AUCinfininty;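 as to all read-outs here: blood drawn through a jugular vein catheter by an automated sampling system, plasma drug levels measured by LC-MS/MS with positive electrospray ionization against standard curves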
Procedure: The Culex ABS is a blood sampling and metabolism monitoring machine, which is controlled by its own internal computer. We were successful in evaluating PK for long-term periods by using this system. After jugular vein cannulation, study animals were individually placed in the system, which allowed for a micro-pump to infuse heparinized-saline (10 unit heparin/mL saline) at a rate of 1-2 μL/min to prevent coagulation within the catheter. Culex samples were obtained with precise blood volumes from the study animals and the total volume taken was less than 6% per day and 14% during the entire study period. Blood samples were maintained at 3 °C using Culex's temperature-controlled fractional collector. Plasma was separated from the blood samples and processed for drug extraction.
(§1) Three samples were collected during each phase of absorption, distribution, or elimination for full PK analysis on the first and last dosing days following intravenous bonus injection. Additionally, trough levels (pre-dose) samples were collected in between each dose to follow drug accumulation and a series PK approach (18 samples per animal) was used. Thus, each animal was dosed and plasma samples were obtained for up to three days. A total of 18 (0, 5, 15, 30, 45 min, 1, 2, 3, 6, 24.25, 48.167, 48.25, 48.5, 48.75, 49, 50, 51, and 54 h) samples were collected into cooled vials. 50 μL of blood per sample was collected pre-dosing and after dosing and 100 μL per sample was taken from 0.08 h to 56 h after dosing. During collection, blood samples were added into the vials, which contained dried heparin (50 units) on the bottom of each vial. Thus, a total blood volume of 1.75 mL was obtained from each rat during the three day treatment period (0.85 mL of blood on day 0, 0.1 mL on day 1, and 0.9 mL on day 2), which is 9.3% of the animals total blood volume. Subjects for replicated crossover design were followed FDA recommendation [22] with a 2 week wash out period. During wash-out period, if the catheter was blocked up by any reasons the jugular vein tubes were infused or replaced.
The samples were vortexed vigorously (set at 10 or max setting) for 8–10 sec followed by a 10,000 × g centrifugation at 4 °C for 10 min. Aliquots (approximately 250 μL ea) of the undisturbed supernatants were transferred into a 96-well plate for LC-MS/MS analyses. […] Drugs were chromatographically separated using an acetonitrile/ammonium acetate gradient through a Waters XTerra C18 column (2.1 × 50 mm, 3.5 μm particle size) and corresponding pre-column. Quantification was done using the most abundant daughter ions following positive electrospray ionization. Chromatograms were analyzed using Xcalibur mass spectrometry software. The responses-concentrations standard curves were fitted and weighted.
The area under the curve (AUC) was determined by the linear trapezoidal rule with extrapolation to infinity based on the concentration of the last time point divided by the terminal rate constant. The bioequivalence (BE) evaluation of the two formulations were analyzed by using BE software (WinNonlin 5.2, Pharsight Co. Mountain View, CA. USA) in rats for a NDA application.

parasitemia = test system: parasitemia; parameters: method as in earlier work; conditions: intravenous AS, clinical trials; cited from earlier work
malaria parasites = conditions: incubation in vitro; cited from earlier work
[2] = Hematology and recovery study after multiple intravenous AS; format: in vivo, rats
Procedure: At 24 and 96 h after the final dose of Chinese and WRAIR intravenous AS, male and female animals were anesthetized by isoflurane inhalation anesthesia (Abbott Labs, North Chicago, IL, USA) delivered by a small-animal anesthesia system (Euthanex Corp, Palmer Park, PA, USA). Each animal was initially placed in a chamber primed with 5% isoflurane, and upon induction, maintained in a non-rebreathing mask at 2% isoflurane delivered with […]. […] One mL of the blood sample was placed in K3 EDTA tubes (Beckton Dickinson, Franklin Lakes, NJ, USA) for CBC analysis using the ABX Pentra 60 hematology analyzer (ABX diagnostics, Irvine, CA, USA). Another 0.7 mL of blood was placed in serum separator tubes (Becton Dickinson, Franklin Lakes, NJ, USA) for biochemistry analysis using commercial assay kits on the Vitros 250 Chemistry analyzer (Johnson & Johnson, Rochester, NY, USA). Reticulocyte analysis was performed utilizing light microscopy. After sample collection, rats were euthanized by cervical dislocation.

[3] = rat, in vivo
Text: An automated blood sampler (Culex ABS, Bioanalytical Systems, Inc. West Lafayette, IN) was used for rat blood sample collection.
as §1
The area under the curve (AUC) was determined by the linear trapezoidal rule with extrapolation to infinity based on the concentration of the last time point divided by the terminal rate constant.

[4] = cited from earlier work
[5] = Chinese formulation (AS/NaHCO3), 20 mg/kg i.v. daily for 3 days, male rats, Period 1, Day 3
[6] = Chinese formulation (AS/NaHCO3), 20 mg/kg i.v. daily for 3 days, male rats, Period 2, Day 3
[7] = WRAIR formulation (AS/0.3M PBS Buffer), 20 mg/kg i.v. daily for 3 days, male rats, Period 2, Day 3
[8] = 20 mg/kg, Chinese formulation (AS/NaHCO3), 20 mg/kg i.v. daily for 3 days, male rats, Period 1, Day 1
[9] = 20 mg/kg, Chinese formulation (AS/NaHCO3), 20 mg/kg i.v. daily for 3 days, male rats, Period 1, Day 3
[10] = 20 mg/kg, Chinese formulation (AS/NaHCO3), 20 mg/kg i.v. daily for 3 days, male rats, Period 2, Day 1
[11] = 20 mg/kg, Chinese formulation (AS/NaHCO3), 20 mg/kg i.v. daily for 3 days, male rats, Period 2, Day 3
[12] = 20 mg/kg, WRAIR formulation (AS/0.3M PBS Buffer), 20 mg/kg i.v. daily for 3 days, male rats, Period 1, Day 1
[13] = 20 mg/kg, WRAIR formulation (AS/0.3M PBS Buffer), 20 mg/kg i.v. daily for 3 days, male rats, Period 1, Day 3
[14] = 20 mg/kg, WRAIR formulation (AS/0.3M PBS Buffer), 20 mg/kg i.v. daily for 3 days, male rats, Period 2, Day 1
[15] = 20 mg/kg, WRAIR formulation (AS/0.3M PBS Buffer), 20 mg/kg i.v. daily for 3 days, male rats, Period 2, Day 3
[16] = male, Sprague-Dawley, iv, 20 mg/kg, 1 day

AUC0–3 h ([1]; Chinese formulation (AS/NaHCO3), 20 mg/kg i.v. daily for 3 days, male rats, Period 1, Day 1): 867.5 ± 136.7 ng·h/mL | AUC0–3 h [1, 5]: 614.2 ± 191.8 ng·h/mL | Cmin [1, 5]: 4.35 ± 2.54 ng/mL | AUC0–3 h ([1]; Chinese formulation (AS/NaHCO3), 20 mg/kg i.v. daily for 3 days, male rats, Period 2, Day 1): 932.6 ± 144.2 ng·h/mL | AUC0–3 h [1, 6]: 665.4 ± 236.3 ng·h/mL | Cmin [1, 6]: 3.35 ± 2.11 ng/mL | Degree of Fluctuation = 100% × (Cmax − Cmin)/Cav [1, 6]: 1192 ± 219% | time at which Cmax was measured ([1]; Chinese formulation, 20 mg/kg i.v., rats, period 1, day 1): 5 min | time at which Cmax was measured ([1]; Chinese formulation, 20 mg/kg i.v., rats, period 2, day 1): 5 min | time at which Cmax was observed ([1]; Chinese formulation, 20 mg/kg i.v., rats, period 2, day 3): 5 min | AUC0–3 h ([1]; WRAIR formulation (AS/0.3M PBS Buffer), 20 mg/kg i.v. daily for 3 days, male rats, Period 1, Day 1, 20 mg/kg): 879.4 ± 167.4 ng·h/mL | Cmin ([1]; WRAIR formulation (AS/0.3M PBS Buffer), 20 mg/kg i.v. daily for 3 days, male rats, Period 1, Day 3): 3.56 ± 0.85 ng/mL | AUC0–3 h ([1]; WRAIR formulation (AS/0.3M PBS Buffer), 20 mg/kg i.v. daily for 3 days, male rats, Period 1, Day 3, 20 mg/kg): 611.1 ± 162.1 ng·h/mL | Cmin [1, 7]: 3.87 ± 1.57 ng/mL | Degree of Fluctuation = 100% X (Cmax − Cmin)/Cav [1, 7]: 1218 ± 172% | AUC0–3 h ([1]; WRAIR formulation (AS/0.3M PBS Buffer), 20 mg/kg i.v. daily for 3 days, male rats, Period 2, Day 3, 20 mg/kg): 669.7 ± 159.3 ng·h/mL | time at which Cmax was measured ([1]; WRAIR formulation, 20 mg/kg i.v., rats, period 1, day 1): 5 min | AS concentration on day 3 compared to day 1 ([1]; i.v. treatments in rats): one-third lower | Cmax [1, 8]: 4300 ng/mL | MRT [1, 8]: 15.6 ± 2.4 min | Tmax [1, 8]: 4.98 min | clearance [1, 8]: 380 ± 54.2 mL/min/kg | AUC(0-t) [1, 8]: 868 ng·h/mL | AUC [1, 8]: 872 ± 138 ng·h/mL | half-life ([1]; 20 mg/kg, Chinese formulation (AS/NaHCO3), 20 mg/kg i.v. daily for 3 days, male rats, Period 1, Day 1, read-out: t1/2 distribution (converted)): 3.6 ± 0.6 min | half-life ([1]; 20 mg/kg, Chinese formulation (AS/NaHCO3), 20 mg/kg i.v. daily for 3 days, male rats, Period 1, Day 1, read-out: t1/2 elimination (converted)): 24 ± 4.2 min | Cmax [1, 9]: 2460 ng/mL | MRT [1, 9]: 17.4 ± 6 min | Tmax [1, 9]: 4.98 min | average plasma concentration over 0–72 h (Cav = AUC0–72 h/72) [1, 9]: 204 ng·h/mL | clearance [1, 9]: 570 ± 170 mL/min/kg | AUC(0-t) [1, 9]: 614 ng·h/mL | AUC [1, 9]: 617 ± 193 ng·h/mL | half-life ([1]; 20 mg/kg, Chinese formulation (AS/NaHCO3), 20 mg/kg i.v. daily for 3 days, male rats, Period 1, Day 3, read-out: t1/2 distribution (converted)): 6 ± 1.8 min | half-life ([1]; 20 mg/kg, Chinese formulation (AS/NaHCO3), 20 mg/kg i.v. daily for 3 days, male rats, Period 1, Day 3, read-out: t1/2 elimination (converted)): 24.6 ± 6.6 min | Cmax [1, 10]: 4140 ng/mL | MRT [1, 10]: 15.6 ± 3 min | Tmax [1, 10]: 4.98 min | clearance [1, 10]: 360 ± 56.2 mL/min/kg | AUC(0-t) [1, 10]: 932 ng·h/mL | AUC [1, 10]: 935 ± 144 ng·h/mL | half-life ([1]; 20 mg/kg, Chinese formulation (AS/NaHCO3), 20 mg/kg i.v. daily for 3 days, male rats, Period 2, Day 1, read-out: t1/2 distribution (converted)): 4.8 ± 1.8 min | half-life ([1]; 20 mg/kg, Chinese formulation (AS/NaHCO3), 20 mg/kg i.v. daily for 3 days, male rats, Period 2, Day 1, read-out: t1/2 elimination (converted)): 25.8 ± 4.2 min | Cmax [1, 11]: 2540 ng/mL | MRT [1, 11]: 15.6 ± 5.4 min | Tmax [1, 11]: 4.98 min | clearance [1, 11]: 562 ± 240 mL/min/kg | AUC(0-t) [1, 11]: 665 ng·h/mL | AUC [1, 11]: 667 ± 238 ng·h/mL | half-life ([1]; 20 mg/kg, Chinese formulation (AS/NaHCO3), 20 mg/kg i.v. daily for 3 days, male rats, Period 2, Day 3, read-out: t1/2 distribution (converted)): 7.2 ± 1.8 min | half-life ([1]; 20 mg/kg, Chinese formulation (AS/NaHCO3), 20 mg/kg i.v. daily for 3 days, male rats, Period 2, Day 3, read-out: t1/2 elimination (converted)): 23.4 ± 7.8 min | Cmax [1, 12]: 4030 ng/mL | MRT [1, 12]: 18 ± 3.6 min | Tmax [1, 12]: 4.98 min | clearance [1, 12]: 378 ± 67.2 mL/min/kg | AUC(0-t) [1, 12]: 879 ng·h/mL | AUC [1, 12]: 882 ± 167 ng·h/mL | half-life ([1]; 20 mg/kg, WRAIR formulation (AS/0.3M PBS Buffer), 20 mg/kg i.v. daily for 3 days, male rats, Period 1, Day 1, read-out: t1/2 distribution (converted)): 4.8 ± 1.2 min | half-life ([1]; 20 mg/kg, WRAIR formulation (AS/0.3M PBS Buffer), 20 mg/kg i.v. daily for 3 days, male rats, Period 1, Day 1, read-out: t1/2 elimination (converted)): 24.6 ± 1.8 min | Cmax [1, 13]: 2430 ng/mL | MRT [1, 13]: 16.2 ± 5.4 min | Tmax [1, 13]: 4.98 min | average plasma concentration over 0–72 h (Cav = AUC0–72 h/72) [1, 13]: 204 ng·h/mL | clearance [1, 13]: 559 ± 118 mL/min/kg | AUC(0-t) [1, 13]: 611 ng·h/mL | AUC [1, 13]: 613 ± 163 ng·h/mL | half-life ([1]; 20 mg/kg, WRAIR formulation (AS/0.3M PBS Buffer), 20 mg/kg i.v. daily for 3 days, male rats, Period 1, Day 3, read-out: t1/2 distribution (converted)): 6 ± 2.4 min | half-life ([1]; 20 mg/kg, WRAIR formulation (AS/0.3M PBS Buffer), 20 mg/kg i.v. daily for 3 days, male rats, Period 1, Day 3, read-out: t1/2 elimination (converted)): 28.2 ± 6 min | Cmax [1, 14]: 4210 ng/mL | MRT [1, 14]: 16.8 ± 2.4 min | Tmax [1, 14]: 4.98 min | clearance [1, 14]: 387 ± 52.1 mL/min/kg | half-life ([1]; 20 mg/kg, WRAIR formulation (AS/0.3M PBS Buffer), 20 mg/kg i.v. daily for 3 days, male rats, Period 2, Day 1, read-out: t1/2 distribution (converted)): 4.8 ± 0.6 min | half-life ([1]; 20 mg/kg, WRAIR formulation (AS/0.3M PBS Buffer), 20 mg/kg i.v. daily for 3 days, male rats, Period 2, Day 1, read-out: t1/2 elimination (converted)): 26.4 ± 3.6 min | Cmax [1, 15]: 2710 ng/mL | MRT [1, 15]: 16.2 ± 3.6 min | Tmax [1, 15]: 4.98 min | clearance [1, 15]: 517 ± 162 mL/min/kg | AUC(0-t) [1, 15]: 670 ng·h/mL | AUC [1, 15]: 673 ± 160 ng·h/mL | half-life ([1]; 20 mg/kg, WRAIR formulation (AS/0.3M PBS Buffer), 20 mg/kg i.v. daily for 3 days, male rats, Period 2, Day 3, read-out: t1/2 distribution (converted)): 8.4 ± 1.2 min | half-life ([1]; 20 mg/kg, WRAIR formulation (AS/0.3M PBS Buffer), 20 mg/kg i.v. daily for 3 days, male rats, Period 2, Day 3, read-out: t1/2 elimination (converted)): 32.4 ± 11.4 min | total reticulocyte counts ([2]; 20 mg/kg AS intravenously, male and female rats, both formulations): significant reductions | all hematological parameters after recovery period ([2]; 20 mg/kg AS, 3 days post last dosing): reverted to normal | 90% CI for T/R, Lower, AUCD1 [3, 16]: 88.72% | 90% CI for T/R, Upper, AUCD1 [3, 16]: 111.28% | BE (bioequivalence), AUCD1 [3]: Yes | BE (bioequivalence), Cmax D1 [3]: Yes | 90% CI between the two intravenous formulations, AUC0–3 h ([3]; iv): 88.72–111.28% | 90% CI for the difference between the two i.v. formulations, AUC1–3D ([3]; iv): 87.65–112.35% | 90% CI of the difference between the two intravenous formulations, AUCD3 ([3]; iv): 82.30–117.69%
SMILES: C[C@H]1[C@H](OC(=O)CCC(=O)O)O[C@@H]2O[C@@]3(C)CC[C@H]4[C@H](C)CC[C@@H]1[C@@]24OO3 [AS, artesunate]
time for parasitemia to fall by half (parasitemia): 3.18 h | time to completely inhibit parasite growth (malaria parasites): 2 to 4 h | elimination half-life (t1/2) [4]: 2 to 18 min | Cmax and AUC values on the last dose day compared to the first day ([4]; multiple oral treatments in malaria patients and healthy subjects): reduced by one-third to one-seventh
